Source: article PMC6767265, “Cytotoxicity and Apoptosis Induction of Coumarins and Carbazole Alkaloids from Clausena Harmandiana” (Molecules, 2019)
Values joined by “and” are separate entries in the source; they are usually repeats but may differ in a detail not shown here. Identical values can stand only once. Marks after values point to notes of the source that are not given here.

Columns and labels:
[1] = Ferric reducing antioxidant power (FRAP) assay; format: biochemical; conditions: 100 µM compound
Method: FRAP assay was performed following the pervious study with slight modification. FRAP reagent was prepared by mixing 300 mM acetate buffer (pH 3.6), 20 mM ferric chloride solution and 10 mM TPTZ solution in the ratio of 10:1:1 and incubated at 37 °C for 30 min. Then, 150 µL of FRAP reagent was added with 50 µL of the sample (100 µM of isolated compounds or 100 µg/mL of the CH2Cl2 crude extract) in each well of the 96-wells plate. The absorbance was measured at 595 nm using microplate reader (Tecan, Lyon, France). Trolox was used as a positive control. The FRAP value was calculated from the linear equation between the absorbance and ferrous sulfate standard curves (y = 0.0548x + 0.0213, R^2 = 0.9989) and expressed as µM of ferrous sulfate equivalents.

[2] = tested on: human hepatocellular carcinoma cell line (HepG2); experiment: Cell viability assay (neutral red), HepG2; format: cell-based; conditions: for IC50: 24 h, neutral red; for Selectivity Index HepG2: cancer cells over noncancerous Vero cells
Method: (§1) The human lung adenocarcinoma cell line (SK-LU-1), human colon carcinoma cell line (HCT116), human hepatocellular carcinoma cell line (HepG2) and noncancerous African green monkey kidney epithelial cell line (Vero) were cultured in Dulbecco’s modified Eagle’s medium (DMEM) supplemented with 10% fetal bovine serum, 100 IU/mL penicillin and […] streptomycin. Cells were incubated at 37 °C with 95% air and 5% CO2 until they reached approximately 80% confluence before use.
(§2) Cell viability assay was assessed by neutral red (NR). Briefly, cells at a density of 3 × 10^4 cells/well were seeded in 96-wells plate and incubated for 24 h. The sample at concentration, ranging from 10 to 500 µM, were added and incubated for 24 h. After incubation time, cells were washed with PBS. NR reagent (50 µg/mL) was added to each well and incubated for another 2 h. After that, cells were washed with PBS and lyzed with 0.33% HCl in isopropanol. Cisplatin was used as a positive control. The absorbance of NR was detected using microplate reader (Tecan, Lyon, France) at 520 nm. The percentage of cell viability was calculated vis-à-vis the untreated cells and cytotoxicity was expressed as the inhibition concentration at 50% (IC50). The final DMSO concentration was not exceed 0.1%v/v to lessen the cytotoxicity (<10%).

[3] = tested on: human colon carcinoma cell line (HCT116); experiment: Cell viability assay (neutral red), HCT116; format: cell-based; design: key to IC50 HCT116: inactive: Inactive means cell viability percentage was >50% at the maximum concentration used (>100 µM for the compound or >100 µg/mL for the extract); conditions: for IC50 HCT116 / IC50: 24 h, neutral red, inactive = viability >50% at >100 µM; for Selectivity Index HCT116: cancer cells over noncancerous Vero cells
Method: as §1
as §2, with “The sample at concentration, ranging from 10 to 500 µM, were added and incubated for 24 h.” left out

[4] = DPPH radical scavenging assay; format: biochemical; conditions: for DPPH Assay IC50 / IC50: 30 min in the dark, absorbance 517 nm; for DPPH radical scavenging activity classification: classified from IC50 in µg/mL
Method: The 2,2–diphenyl–1–picrylhydrazyl (DPPH) radical scavenging assay was conducted as per the previous method. Briefly, the stock solutions of 10 mM DPPH was prepared in methanol. The DPPH was mixed with samples (100 µL each) at various concentrations (1−500 µM) in 96 wells plate and incubated for 30 min in a dark condition. The absorbance of DPPH radical was measured at 517 nm using a microplate reader (Tecan, Lyon, France). Trolox was used as a positive control. The half maximum inhibitory concentration (IC50 value) was calculated from the plot of percentage of DDPH radical inhibition versus concentration of samples using the following formula: % DPPH radical inhibition = [(Ab − As)/Ab] × 100,(1) where Ab = absorbance of the reagent blank, and As = absorbance of the sample. Each experiment was done in five replications and results are expressed as average values.

[5] = tested on: noncancerous African green monkey kidney epithelial cell line (Vero); experiment: Cell viability assay (neutral red), Vero; format: cell-based; design: key to IC50 Vero: inactive: Inactive means cell viability percentage was >50% at the maximum concentration used (>100 µM for the compound or >100 µg/mL for the extract); conditions: 24 h, inactive = viability >50% at >100 µM
Method: as §1, §2

[6] = tested on: human lung adenocarcinoma cell line (SK-LU-1); experiment: Cell viability assay (neutral red), SK-LU-1; format: cell-based; design: key to IC50 SK-LU-1: inactive: Inactive means cell viability percentage was >50% at the maximum concentration used (>100 µM for the compound or >100 µg/mL for the extract); conditions: for IC50 SK-LU-1 / IC50: 24 h, neutral red, inactive = viability >50% at >100 µM; for Selectivity Index SK-LU-1: cancer cells over noncancerous Vero cells
Method: as §1
as §2, with “The sample at concentration, ranging from 10 to 500 µM, were added and incubated for 24 h.” left out

HepG2 cells = experiment: Mode of cell death by Annexin V-FITC/PI staining, flow cytometry; format: cell-based, human
Description: In this study, double staining of cells by Annexin V-FITC/propidium iodide (PI) was used to differentiate apoptosis from necrosis. The stages of apoptosis can be distinguished from necrotic cell death by flow cytometry using Annexin V-FITC/PI double staining of HepG2 cells. During the early stages of apoptosis, the phosphatidylserine comprising the cell membrane will externalize to be exposed to the surface of apoptotic cells and bind with Annexin V-FITC, showing a cell dot plot in Quadrant 4. The cell dot plot is positively stained with Annexin V-FITC but negatively stained with PI (+/−). When cells are damaged or undergo a late state of apoptosis, cells will lose their membrane integrity, including nuclear membrane integrity, so that PI can pass through the nuclear membrane, showing a cell dot plot in Quadrant 2. […] During cell undergo necrotic cell death, cells are stained and appear in Quadrant 1 (−/+). Normal cells are not stained and appear in Quadrant 3 (−/−). The total apoptotic cell death percentage was counted from the percentage of cells undergoing an early state and late state of apoptosis gathering from Quadrants 4 and 2, while the necrotic cell death percentage was counted from Quadrant 1, as shown in Figure 2.
The Annexin V-FITC and PI apoptosis assay kit (BioLegend, San Diego, CA, USA) was used to determine mode of cell death as per previous report. The HepG2 cells (8 × 10^5 cell/mL) were seeded in a 24-well plate and incubated for 24 h. The compounds at a concentration of 1 x IC50 and 2 x IC50 were added and incubated for 12 and 24 h. After that, cells were washed with PBS and cold BioLegend’s cell staining buffer followed by staining with Annexin V-FITC and PI and cell were incubated in the dark for 15 min. The cells were analyzed by flow cytometry (BD FACSCanto II, BD Biosciences, San Jose, CA, USA) and the percentage of cells in different populations were calculated with FACSDiva software.

| SMILES | FRAP Value [1] | IC50 ([2]; Homo sapiens, HepG2) | Selectivity Index HepG2 [2] | Selectivity Index HCT116 [3] | DPPH Assay IC50 [4] | IC50 [4] | DPPH radical scavenging activity classification [4] | IC50 Vero [5] | Selectivity Index SK-LU-1 [6] | IC50 ([3]; Homo sapiens, HCT-116) | IC50 ([6]; Homo sapiens, SK-LU-1) | also measured |
| --- | --- | --- | --- | --- | --- | --- | --- | --- | --- | --- | --- | --- |
| COc1ccc2c(c1)[nH]c1c(CC=C(C)C)c(O)c(C=O)cc12 [7-Methoxyheptaphylline (7), 7-methoxyheptaphylline] | 1.4 ± 0.1^g µM FeSO4 Equivalents | 65.5 ± 2.7 µM | (1.5) | (1.0) | 96.8 ± 1.1^g µg/mL | 313 ± 3.4 µM | low radical scavenger | inactive^bB | 1.0) | – | – | FRAP Value ([1]; listed as 7-methoxyheptaphylline): 1.4 µM FeSO4 Equivalents; IC50 HCT116 [3]: inactive^bE; IC50 SK-LU-1 [6]: inactive^bF |
| COc1ccc2c(c1)[nH]c1cc(O)c(C=O)cc12 [7-Methoxymukonal (5), 7-methoxymukonal] | 47.0 ± 0.6^a µM FeSO4 Equivalents | 82.6 ± 2.8 µM | (1.2) | (1.0) | 6.8 ± 0.5^b µg/mL | 26.2 ± 2 µM | moderate radical scavenger | inactive^bB | (1.0) | – | – | FRAP Value ([1]; listed as 7-methoxymukonal): 47.0 µM FeSO4 Equivalents; IC50 HCT116 [3]: inactive^bE; IC50 SK-LU-1 [6]: inactive^bF |
| N.N.[Cl][Pt][Cl] [Cisplatin, reference compound] | – | – | (4.6) | (1.4) | – | – | – | inactive^dB | (2.3) | – | – | IC50 [2]: 21.8 ± 3 µM; IC50 [3]: 71.9 ± 2.7 µM; IC50 [6]: 42.7 ± 1.9 µM |
| C=CC(C)(C)c1cc2c(O)c3c(c(C(C)(C)C=C)c2oc1=O)OC(C)(C)C=C3 [Clausarin (2), clausarin] | 45.2 ± 1.0^b µM FeSO4 Equivalents | 17.6 ± 2.1 µM | (4.4) | (1.7) | 2.3 ± 0.3^a µg/mL | 6 ± 0.8 µM | high radical scavenger | – | (11.3) | 44.9 ± 1.4 µM | 6.9 ± 1.6 µM | FRAP Value ([1]; listed as clausarin): 45.2 ± 1.0 µM FeSO4 Equivalents and 45.2 µM FeSO4 Equivalents; IC50 ([5]; Chlorocebus sabaeus, Vero): 78.2 ± 3 µM; apoptotic cell death percentage (total, Quadrants 4 and 2) (HepG2 cells; HepG2, 1 × IC50, 12 h): 44.0 ± 1.2%; necrotic cell death percentage (Q1, Annexin V-FITC/PI −/+) (HepG2 cells; HepG2, 1 × IC50, 12 h): 6.8 ± 1.4%; necrotic cell death percentage (Q1, Annexin V-FITC/PI −/+) (HepG2 cells; HepG2, 2 × IC50, 12 h): 27.4 ± 3.8% |
| C=CC(C)(C)c1c2c(c(OC)c3ccc(=O)oc13)C=CC(C)(C)O2 [Dentatin (3), dentatin] | 4.7 ± 0.1^f µM FeSO4 Equivalents | 47.6 ± 2.8 µM | (2.1) | (1.4) | >500^h µg/mL | > 500 µM | no activity | inactive^cB | (2.2) | 73.9 ± 2.5 µM | 45.4 ± 2.5 µM | FRAP Value ([1]; listed as dentatin): 4.7 µM FeSO4 Equivalents |
| CC(C)=CCc1c(O)c(C=O)cc2c1[nH]c1ccccc12 [Heptaphylline (1), heptaphylline] | 1.0 ± 0.0^g µM FeSO4 Equivalents | 37.8 ± 2.6 µM | (2.6) | (1.3) | 93.5 ± 2.2^f µg/mL | 335 ± 7.8 µM | low radical scavenger | inactive^dB | (1.2) | 74.7 ± 2.1 µM | 83.1 ± 2.6 µM | FRAP Value ([1]; listed as heptaphylline): 1.0 µM FeSO4 Equivalents |
| C=CC(C)(C)c1c2c(c(O)c3ccc(=O)oc13)C=CC(C)(C)O2 [Nordentatin (6), nordentatin] | 9.0 ± 1.1^e µM FeSO4 Equivalents | 29.9 ± 3.2 µM | (3.3) | (1.6) | 12.0 ± 0.8^c µg/mL | 38.3 ± 2.5 µM | moderate radical scavenger | inactive^cB | (1.5) | 63.6 ± 2.3 µM | 67.3 ± 1.2 µM | FRAP Value ([1]; listed as nordentatin): 9.0 µM FeSO4 Equivalents |
| Cc1c(C)c2c(c(C)c1O)CCC(C)(C(=O)O)O2 (stereo not drawn) [Trolox, 6-hydroxy-2,5,7,8-tetramethylchroman-2-carboxylic acid, reference compound] | 37.7 ± 0.8^c µM FeSO4 Equivalents | – | – | – | 4.2 ± 0.1^a µg/mL | 16.8 ± 0.6 µM | moderate radical scavenger | – | – | – | – | FRAP Value ([1]; listed as trolox): 37.7 µM FeSO4 Equivalents |
